Structures can show the parent of a compound that is named as a salt.
Key:
[1] = test system: MDA formation in rat brain synaptosomes; test: Malonyldialdehyde (MDA) Formation Assay (lipid peroxidation); type: biochemical; details: active = 50% inhibition or more at 200 μM or less
Text: The MDA assays of Buege and Aust, Methods in Enzymology, Fleisher and Packer Editors. Academic Press, 1978, New York, Vol LII, p 302-310 and Kohn and Liversedge, J. Pharmacol. Exp. Ther. 82. […] Since iipid peroxidation is involved in the pathophysiology of central nervous system trauma, compounds which inhibit MDA formation are useful in treating the conditions listed below.
While not necessary to determine MDA formation, the above assays have been modified as follows: rat brain synaptosomes are prepared as described in the Example about the conjugated diene assay, except that the final wash of the synaptosomes and final suspension are in physiological (normal) saline in which the pH has been adjusted to 7 0. The synaptosomes are incubated for 10 min at 37° in physiological (normal) saline pH 7.0 (total volume=100 ul) containing; 10 ul synaptosomal suspension. 10% DMSO plus or minus drug. 150 uM Fe^+++ and 50 uM Fe^++. The incubation is started by the rapid addition of iron to the otherwise complete reaction. The iron solutions are prepared fresh as ferric chloride and ferrous ammonium sulfate in argon-purged water. Following the 10 min incubation, the reaction is stopped by the addition of 500 ul ice-cold 12% trichloroacetic acid prepared in 0.5 N hydrochloric acid. Water (300 ul) is then added along with 100 ul of freshly prepared thiobarbituric acid (3.3% in 0.5N sodium hydroxide) and 10 ul of 5mM desferrioxamine. The sample is then heated in a boiling water bath for 20 minutes. The samples are cooled and centrifuged for 15 minutes at 1500 xg and the absorbance of the supernatant fraction is read at 532 nm. The % inhibition of MDA formation is calculated by dividing the absorbance of sample containing drug by the absorbance of samples incubated without drug. Reaction blanks are samples incubated in the absence of iron A compound that inhibits MDA formation by 50% or more at a concentration of 200μM or less is considered "active".

[2] = test system: interleukin-1; test: inhibition of interleukin-1 induced T cell proliferation assay; type: cell-based; details: active = >30% at 10^-6 M
Text: The inhibition of interleukin-1 induced T cell proliferation assay, Proc. Nat. […] Since people with arthritis make excess interleukin 1, compounds which inhibit the activity of interleukin 1 are useful in the treatment of arthritis. According to this procedure compounds which inhibit the activity of interleukin 1 greater that 30% at 10^-6 M are considered to be "active".

[3] = test system: angiogenesis; test: fertile egg or chick embryo assay of Folkman (inhibition of angiogenesis / tumor growth); type: in vivo; details: chick embryo; for inhibition of angiogenesis: 50 μg/10 μl with heparin, avascular zone 4 mm or greater
Procedure: According to this procedure compounds which are considered to be "active" (i.e, antiangiogenic) give an avascular zone of 4 mm or greater in some embryos when tested at 50 μg/10 μl in the presence of 50 μg/10 μ of heparin.

[4] = test system: arachidonic acid; test: Arachidonic Acid Antagonism Assay (AAAA); type: in vivo, mouse (Charles River male CF-1); details: mice; for arachidonic acid antagonism (elevation of LD50 of arachidonic acid): IV, 15 min before sodium arachidonate, outside 95% confidence interval of control LD50
Procedure: While not necessary to determine arachidonic acid antagonism, the above assay has been modified as follows: Charles River male CF-1 mice weighing […] are treated IV with the test compound dissolved in 1.0% Tween-80 and 0.1% hydrochloric acid in distilled water. 0 2 ml total volume. Fifteen minutes later sodium arachidonate (90% pure) in physiological (normal) […] is injected into the tail vein. The LD50 is measured using the Spearman-Karber method with a log dose interval of 0.05 (N-6). Compounds which elevate the LD50 outside of the 95% confidence interval of the control LD50 are considered to be "active".

C[C@@]12C(=CC(=O)C[C@@H]1C#N)CC[C@@H]1C2=CC[C@]2(C)[C@@H](CCN3CCN(c4cc(N5CCCC5)nc(N5CCCC5)n4)CC3)CC[C@@H]12.Cl.Cl.Cl.O [Example 110, 21-[4-(2,6-Bis(1-pyrrolidinyl)-4-pyrimidinyl)-1-piperazinyl]-1α-cyanopregna-4,9(11)-diene-3-one-trihydrochloride, hydrate]
inhibition of MDA formation [1]: demonstrate such activity

COc1ccc(CCN(CC(=O)[C@@]2(O)CC[C@H]3[C@@H]4CCC5=CC(=O)CC[C@]5(C)C4=CC[C@@]32C)Cc2cc(OC)c(OC)c(OC)c2)cc1OC [Example 37, 17α-hydroxy-21-[[2-(3,4-dimethoxyphenyl)ethyl]-[3,4,5-trimethoxyphenyl)methyl]amino]pregna-4,9(11)diene-3,20-dione hydrochloride]
inhibition of interleukin 1 [2]: demonstrate inhibition of interleukin 1
inhibition of angiogenesis [3]: demonstrate inhibition of angiogenesis

C[C@H]1C[C@H]2[C@@H]3C[C@H](F)C4=CC(=O)CC[C@]4(C)C3=CC[C@]2(C)[C@@]1(O)C(=O)CN1CCN(c2cc(N3CCCC3)nc(N3CCCC3)n2)CC1.Cl.Cl [Example 118, 6α-Fluoro-17α-hydroxy-16β-methyl-21-[4-[2,6-bis(1-pyrrolidinyl)-4-pyrimidinyl]-1-piperazinyl]-pregna-4,9(11)-diene-3,20-dione dihydrochloride]
inhibition of MDA formation [1]: demonstrate such activity

CN(CCN(C)c1ccccn1)CC(=O)[C@@]1(O)CC[C@H]2[C@@H]3CCC4=CC(=O)CC[C@]4(C)C3=CC[C@@]21C.Cl.Cl [Example 24, 17α-hydroxy-21-[methyl[2-(methyl-2-pyridinylamino)ethyl]amino]pregna-4,9(11)-diene-3,20-dione dihydrochloride]
arachidonic acid antagonism (elevation of LD50 of arachidonic acid) [4]: demonstrate arachidonic acid antagonism
inhibition of angiogenesis [3]: demonstrate inhibition of angiogenesis

C[C@]12CCC(=O)C=C1CC[C@@H]1C2=CC[C@@]2(C)[C@H]1CC[C@]2(O)C(=O)CN1CCN(c2cccc(N3CCCC3)n2)CC1 [Example 62, 17α-hydroxy-21-[4-[6-(1-pyrrolidinyl)-2-pyridinyl]-1-piperazinyl]pregna-4,9(11)-diene-3,20-dione(E)-2-butenedioate (1:1) salt]
% of Control LD50 ([4]; 100 mg/kg, LD50 of sodium arachidonate): 138%
arachidonic acid antagonism (elevation of LD50 of arachidonic acid) [4]: demonstrate arachidonic acid antagonism
inhibition of MDA formation [1]: demonstrate such activity

C[C@]12CCC(=O)C=C1CC[C@@H]1C2=CC[C@]2(C)[C@@H](CCN3CCN(c4cc(N5CCCC5)nc(N5CCCC5)n4)CC3)CC[C@@H]12.Cl [Example 104, 21-[4-(2,6-Bis(1-pyrrolidinyl)-4-pyrimidinyl)-1-piperazinyl]pregna-4,9(11)-dien-3-one hydrochloride]
inhibition of MDA formation [1]: demonstrate such activity
inhibition of angiogenesis [3]: demonstrate inhibition of angiogenesis

COc1ccc2c(c1)CC[C@@H]1[C@@H]2CC[C@@]2(C)[C@H]1CC[C@]2(O)C(=O)CN1CCN(c2cc(N3CCCC3)nc(N3CCCC3)n2)CC1 [Example 125, 3,17α-Dihydroxy-21-[4-[2,6-bis(1-pyrrolidinyl)-4-pyrimidinyl]-1-piperazinyl]-19-norpregna-1,3,5(10)-trien-20-one 3-methyl ether (E)-2-butenedioate 1:1 salt]
inhibition of MDA formation [1]: demonstrate such activity

C[C@H]1C[C@@H]2[C@H]([C@@H](O)C[C@@]3(C)[C@H]2CC[C@]3(O)C(=O)CN2CCN(c3ccccn3)CC2)[C@@]2(C)C=CC(=O)C=C12 [Example 21, 11β,17α-dihydroxy-6α-methyl-21-[4-(2-pyridinyl)-1-piperazinyl]pregna-1,4-diene-3,20-dione]
arachidonic acid antagonism (elevation of LD50 of arachidonic acid) [4]: demonstrate arachidonic acid antagonism
inhibition of interleukin 1 [2]: demonstrate inhibition of interleukin 1
% of Embryos with 4 mm or Greater A vascular Zone ([3]; 50 μg/10 μl in the presence of heparin): 91%
inhibition of angiogenesis [3]: demonstrate inhibition of angiogenesis

C[C@]12CC[C@@H]3c4ccc(O)cc4CC[C@H]3[C@@H]1CC[C@]2(O)C(=O)CN1CCN(c2cc(N3CCCC3)nc(N3CCCC3)n2)CC1 [Example 129, 3,17α-Dihydroxy-21-[4-[2,6-bis(1-pyrrolidinyl)-4-pyrimidinyl]-1-piperazinyl]-19-norpregna-1,3,5(10)-trien-20-one(E)-2-butenedioate 1:1 salt]
inhibition of MDA formation [1]: demonstrate such activity

CN1CCN(CC(=O)[C@@]2(O)CC[C@H]3[C@@H]4CCC5=CC(=O)CC[C@]5(C)C4=CC[C@@]32C)CC1 [Example 101, 17α-hydroxy-21-(4-methyl-1-piperazinyl)-pregna-4,9(11)-diene-3,20-dione]
inhibition of interleukin 1 [2]: demonstrate inhibition of interleukin 1

C[C@]12CC(=O)[C@H]3[C@@H](CCC4=CC(=O)CC[C@@]43C)[C@@H]1CC[C@@H]2C(=O)CN1CCN(c2cc(N3CCCC3)nc(N3CCCC3)n2)CC1.Cl.Cl [Example 94, 21-[4-[2,6-bis(1-pyrrolidinyl)-4-pyrimidinyl]-1-piperazinyl]-pregn-4-ene-3,11,20-trione dihydrochloride]
inhibition of interleukin 1 [2]: demonstrate inhibition of interleukin 1

CCN(CC)c1ccc(N(C)C)c(N2CCN(CC(=O)[C@@]3(O)CC[C@H]4[C@@H]5CCC6=CC(=O)CC[C@]6(C)C5=CC[C@@]43C)CC2)n1.Cl.Cl [Example 96, 21-[4-[6-(diethylamino)-3-(dimethylamino)-2-pyridinyl]-1-piperazinyl]-17α-hydroxypregna-4,9(11)-diene-3,20-dione dihydrochloride]
inhibition of interleukin 1 [2]: demonstrate inhibition of interleukin 1

C[C@]12CC[C@H]3[C@@H](CCC4=CC(=O)CC[C@@]43C)[C@@H]1CC[C@@H]2CCN1CCN(c2cc(N3CCCC3)nc(N3CCCC3)n2)CC1.Cl [Example 107, 21-[4-(2,6-Bis(1-pyrrolidinyl)-4-pyrimidinyl)-1-piperazinyl]pregna-4-ene-3-one hydrochloride]
inhibition of MDA formation [1]: demonstrate such activity

C[C@@H]1C[C@H]2[C@@H]3CCC4=CC(=O)C=C[C@]4(C)[C@H]3CC[C@]2(C)[C@H]1C(=O)CN1CCN(c2cc(N3CCCC3)nc(N3CCCC3)n2)CC1.Cl.Cl [Example 121, 16α-Methyl-21-[4-[2,6-bis(1-pyrrolidinyl)-4-pyrimidinyl]-1-piperazinyl]pregna-1,4-diene-3,20-dione dihydrochloride]
inhibition of MDA formation [1]: demonstrate such activity

C[C@]12CC[C@H]3[C@@H](CCC4=CC(=O)C=C[C@@]43C)[C@@H]1CC[C@@H]2C(=O)CN1CCN(c2cc(N3CCCC3)nc(N3CCCC3)n2)CC1.Cl.Cl [Example 97, 21-[4-[2,6-di-(1-pyrrolidinyl)-4-pyrimidinyl]-1-piperazinyl]-pregna-1,4-diene-3,20-dione dihydrochloride]
inhibition of interleukin 1 [2]: demonstrate inhibition of interleukin 1
inhibition of angiogenesis [3]: demonstrate inhibition of angiogenesis

— patent USRE35053E, “Amines useful in producing pharmaceutically active CNS compounds” (The Upjohn Company, priority 1992, dated 1995)
